Measured values from US20260183274A1, “PDK1 REGULATORY COMPOUND AND COMPOSITION CONTAINING THE SAME” (PROVIBIO CO., LTD., priority 2024, published 2026).

Columns and labels:
Format in all cases: cell-based
[1] = test system: Human Head and Neck cancer, Fadu; assay: Relative cell viability CCK-8, Fadu; conditions: Fadu cells, relative to untreated cells
Experimental: Human-derived head and neck cancer cell line Fadu and osteosarcoma cell line Saos-2 were cultured in MEM medium containing 10% FBS, 100 U/mL penicillin, and 100 μg/mL streptomycin.
Following stabilization, the cells were harvested using Trypsin-EDTA treatment, centrifuged at 1,200 rpm for 3 minutes, the supernatant was removed, and the cells were resuspended in the same medium. They were then seeded into a 96-well plate (Costar 96-well cell culture plate, Corning) at 100 μL per well, and the conditions were adjusted as indicated in Table 5.
The cells were cultured in a 5% CO2 incubator at 37° C. for 24 hours, and after stabilization of the cells, each plate was washed with 200 μL of PBS per well and treated with 50 μL of culture medium per well.
After that, 10 μL of CCK-8 was added to each well, and the plate was incubated again at 37° C. in a 5% CO2 incubator for 2 hours.
In other words, when the survival rate of untreated cells (DMSO) is set at 100%, the relative cell survival rate in each group treated with the drug at different concentrations is indicated.

[2] = test system: T cells isolated from mouse spleens; assay: T cell proliferation inhibition (CFSE flow cytometry, anti-CD3/anti-CD28 stimulation); conditions: mouse spleen T cells, 3 days; for inhibition at 0.01 µM / inhibition at 0.1 µM / inhibition at 1 µM / inhibition at 10 µM / inhibition at 30 µM / inhibition at 50 µM: Mus musculus, T-cell, 72 h, read-out: Proliferation inhibition rate (%)
Method in brief: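 Proliferation inhibition (%) came from flow cytometry of CFSE dilution after 3 days' culture at 37 °C with compound (10 nM, 100 nM, 1, 10, 30, 50 μM; triplicate wells). Cells were magnetically purified T cells from C57BL/6 mouse spleens, 2×10^5 per well, stimulated with 0.5 μg/mL each anti-CD3 and anti-CD28.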

[3] = test system: Human B Lymphocyte cell line, SU-DHL-8; assay: Relative cell viability CCK-8, SU-DHL-8; conditions: 48 hours, untreated (DMSO) = 100%; for viability at 1 µM / viability at 10 µM / viability at 30 µM / viability at 50 µM: Homo sapiens, SU-DHL-8, 48 h; for viability at 1 µM: read-out: Relative cell viability (%), SU-DHL-8, 1 μM; for viability at 10 µM: read-out: Relative cell viability (%), SU-DHL-8, 10 μM; for viability at 30 µM: read-out: Relative cell viability (%), SU-DHL-8, 30 μM; for viability at 50 µM: read-out: Relative cell viability (%), SU-DHL-8, 50 μM
Method in brief: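 Cells grown in RPMI-1640 with 10% FBS, treated with compound at several concentrations, then given CCK-8 for 4 h at 37° C. Viability expressed as percent of DMSO-treated cells.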

Row | Compound | inhibition at 0.01 µM ([2]; compound 10 nM) | inhibition at 0.1 µM ([2]; compound 100 nM) | inhibition at 1 µM ([2]; compound 1 μM) | inhibition at 10 µM ([2]; compound 10 μM) | inhibition at 30 µM ([2]; compound 30 μM) | inhibition at 50 µM ([2]; compound 50 μM) | viability at 1 µM [3] | viability at 10 µM [3] | viability at 30 µM [3] | viability at 50 µM [3] | Proliferation inhibition rate (%) ([2]; compound 10 nM) | Proliferation inhibition rate (%) ([2]; compound 100 nM) | Proliferation inhibition rate (%) ([2]; compound 1 μM) | Proliferation inhibition rate (%) ([2]; compound 10 μM) | Proliferation inhibition rate (%) ([2]; compound 30 μM) | Proliferation inhibition rate (%) ([2]; compound 50 μM) | also measured
1 | Nc1ncccc1C(=O)NCCCCCCCCCCCCN1CCC(c2ccc([N+](=O)[O-])cc2)CC1 [Compound 44, 2-Amino-N-(12-(4-(4-nitrophenyl)piperidin-1-yl)dodecyl)nicotinamide] | -6.21% | 100% | 100% | 100% | 100% | 100% | 6.14% | 4.91% | 2.54% | 1.41% | – | – | – | – | – | – | viability at 1 µM ([1]; Homo sapiens, FaDu, 1 μM): 1.22%; viability at 10 µM ([1]; Homo sapiens, FaDu, 10 μM): 5.89%; viability at 30 µM ([1]; Homo sapiens, FaDu, 30 μM): 2.94%
2 | Nc1ncccc1C(=O)NCCCCCCCCCCCCN1CCC(O)CC1 [Compound 47, 2-Amino-N-(12-(4-hydroxypiperidin-1-yl)dodecyl)nicotinamide] | -28.8% | 100% | 100% | 100% | 100% | 100% | 11.7% | 10% | 9.4% | 8.33% | – | – | – | – | – | – | viability at 1 µM ([1]; Homo sapiens, FaDu, 1 μM): 10%; viability at 10 µM ([1]; Homo sapiens, FaDu, 10 μM): 19.9%; viability at 30 µM ([1]; Homo sapiens, FaDu, 30 μM): 7.34%; viability at 50 µM ([1]; Homo sapiens, FaDu, 50 μM): 5.02%
3 | Cl.Nc1ncccc1C(=O)NCCCCCCCCCCCCN1CC[C@H](N)C1 [Compound 50, (S)-2-Amino-N-(12-(3-aminopyrrolidin-1-yl)dodecyl) nicotinamide hydrochloride] | – | – | – | – | – | – | – | – | – | – | −7.48% | 100.00% | 100.00% | 100.00% | 100.00% | 100.00% | Relative cell viability (%) ([1]; 1 μM): 20.78%; Relative cell viability (%) ([1]; 10 μM): 26.55%; Relative cell viability (%) ([1]; 30 μM): 23.42%; Relative cell viability (%) ([1]; 50 μM): 7.05%; Relative cell viability (%), SU-DHL-8 ([3]; 1 μM): 9.20%; Relative cell viability (%), SU-DHL-8 ([3]; 10 μM): 8.18%; Relative cell viability (%), SU-DHL-8 ([3]; 30 μM): 6.18%; Relative cell viability (%), SU-DHL-8 ([3]; 50 μM): 4.31%
4 | Cc1ccc(OC2CCN(CCCCCCCCCCCCNC(=O)c3cccnc3N)CC2)cc1 [Compound 51, 2-Amino-N-(12-(4-(p-tolyloxy)piperidin-1-yl)dodecyl) nicotinamide] | – | – | – | – | – | – | – | – | – | – | 0.77% | 16.10% | 100.00% | 100.00% | 100.00% | 100.00% | Relative cell viability (%) ([1]; 1 μM): 24.93%; Relative cell viability (%) ([1]; 10 μM): 17.30%; Relative cell viability (%) ([1]; 50 μM): 7.69%
5 | Nc1ncccc1C(=O)NCCCCCCCCCCCCN1CC(F)(F)C1 [Compound 122, 2-Amino-N-(12-(3,3-difluoroazetidin-1-yl)dodecyl) nicotinamide] | – | – | – | – | – | – | – | – | – | – | 0.00% | 0.00% | 80.00% | 100.00% | 100.00% | 100.00% | Relative cell viability (%), SU-DHL-8 ([3]; 1 μM): 31.84%; Relative cell viability (%), SU-DHL-8 ([3]; 10 μM): 31.91%; Relative cell viability (%), SU-DHL-8 ([3]; 30 μM): 32.93%; Relative cell viability (%), SU-DHL-8 ([3]; 50 μM): 35.70%
6 | Nc1ncccc1C(=O)NCCCCCCCCCCCCn1ncc2ccc(Cl)nc21 [Compound 123, 2-Amino-N-(12-(6-chloro-1H-pyrazolo[3,4-b]pyridin-1-yl)dodecyl)nicotinamide] | -2.54% | 4.78% | 48.4% | 100% | 100% | 100% | 42.2% | 42.2% | 44.6% | 48.8% | – | – | – | – | – | – | –
7 | CN1CCN(C2CCN(CCCCCCCCCCCCNC(=O)c3cccnc3N)CC2)CC1 [Compound 124, 2-Amino-N-(12-(4-(4-methylpiperazin-1-yl)piperidin-1-yl)dodecyl)nicotinamide] | 0% | 20% | 30% | 100% | 100% | 100% | 30.4% | 30.7% | 32.1% | 31.7% | – | – | – | – | – | – | –
8 | COc1cc2c(cc1OC)CN(CCCCCCCCCCCCNC(=O)c1cccnc1N)CC2 [Compound 125, 2-Amino-N-(12-(6,7-dimethoxy-3,4-dihydroisoquinolin-2 (1H)-yl)dodecyl)nicotinamide] | -4.48% | 100% | 100% | 100% | 100% | 100% | 42% | 42.6% | 42% | 42.7% | – | – | – | – | – | – | –
9 | COC1CCN(CCCCCCCCCCCCNC(=O)c2cccnc2N)C1 (stereo not drawn) [Compound 126, 2-amino-N-(12-(3-methoxypyrrolidin-1-yl)dodecyl) nicotinamide] | – | – | – | – | – | – | – | – | – | – | – | 100.00% | 100.00% | 100.00% | 100.00% | 100.00% | Proliferation inhibition rate (%) ([2]; compound 10 nM, listed as K-PB-48, 0.01 µM): 0.00%; Relative cell viability (%), SU-DHL-8 ([3]; 1 μM, listed as K-PB-48, 1 µM): 33.03%; Relative cell viability (%), SU-DHL-8 ([3]; 10 μM, listed as K-PB-48, 10 µM): 31.98%; Relative cell viability (%), SU-DHL-8 ([3]; 30 μM, listed as K-PB-48, 30 µM): 32.32%; Relative cell viability (%), SU-DHL-8 ([3]; 50 μM, listed as K-PB-48, 50 µM): 30.44%
10 | Nc1ncccc1C(=O)NCCCCCCCCCCCCN1CC=CC1 [Compound 129, 2-amino-N-(12-(2,5-dihydro-1H-pyrrol-1-yl)dodecyl) nicotinamide] | – | – | – | – | – | – | – | – | – | – | 0.00% | 90.00% | 100.00% | 100.00% | 100.00% | 100.00% | Relative cell viability (%), SU-DHL-8 ([3]; 1 μM): 34.26%; Relative cell viability (%), SU-DHL-8 ([3]; 10 μM): 33.99%; Relative cell viability (%), SU-DHL-8 ([3]; 30 μM): 35.05%; Relative cell viability (%), SU-DHL-8 ([3]; 50 μM): 34.27%
11 | Nc1ncccc1C(=O)CCCCCCCCCCCCCN1CC2CCC(C1)O2 [Compound 131, 1-(2-aminopyridin-3-yl)-14-(8-oxa-3-azabicyclo[3.2.1]octan-3-yl)tetradecan-1-one] | -6.12% | 100% | 100% | 100% | 100% | 100% | 44.8% | 42.1% | 42.7% | 42.5% | – | – | – | – | – | – | –
